Assay results as given in US9670194B2 (Calitor Sciences, LLC, priority 2013, dated 2017).

Columns and labels:
[1] = system: model of systemic lupus erythematosis; details: Nature Medicine, 2005, 11, 933-935; cited from earlier work
[2] = system: mouse model of rheumatoid arthritis; details: Nature Medicine, 2005, 11, 936-943; cited from earlier work
[3] = Pharmacokinetics after intravenous and oral administration in dogs; assay type: in vivo; details: Dog; for CL/F / AUC(0-t) / half-life / Vd: iv dosing, dose 1 mg/kg; for bioavailability / AUC(0-t) / half-life / Vd: plasma; for bioavailability: iv dose 1 mg/kg, oral dose generally 10 mg/kg; for Vd: read-out: Vss
[4] = Pharmacokinetics after intravenous and oral administration in monkeys; assay type: in vivo; details: Monkey; for CL/F / AUC(0-t) / half-life / Vd: iv dosing, dose 1 mg/kg; for bioavailability / AUC(0-t) / half-life / Vd: plasma; for bioavailability: iv dose 1 mg/kg, oral dose generally 10 mg/kg; for Vd: read-out: Vss
[5] = target: PI3K (p110β/p85α) (h) (Homo sapiens (Human), UniProt P42338); assay: PI3K (p110β/p85α) (h) non-radioactive HTRF kinase assay; assay type: biochemical
Sequence of PI3K (p110β/p85α) (h) (P42338 whole entry): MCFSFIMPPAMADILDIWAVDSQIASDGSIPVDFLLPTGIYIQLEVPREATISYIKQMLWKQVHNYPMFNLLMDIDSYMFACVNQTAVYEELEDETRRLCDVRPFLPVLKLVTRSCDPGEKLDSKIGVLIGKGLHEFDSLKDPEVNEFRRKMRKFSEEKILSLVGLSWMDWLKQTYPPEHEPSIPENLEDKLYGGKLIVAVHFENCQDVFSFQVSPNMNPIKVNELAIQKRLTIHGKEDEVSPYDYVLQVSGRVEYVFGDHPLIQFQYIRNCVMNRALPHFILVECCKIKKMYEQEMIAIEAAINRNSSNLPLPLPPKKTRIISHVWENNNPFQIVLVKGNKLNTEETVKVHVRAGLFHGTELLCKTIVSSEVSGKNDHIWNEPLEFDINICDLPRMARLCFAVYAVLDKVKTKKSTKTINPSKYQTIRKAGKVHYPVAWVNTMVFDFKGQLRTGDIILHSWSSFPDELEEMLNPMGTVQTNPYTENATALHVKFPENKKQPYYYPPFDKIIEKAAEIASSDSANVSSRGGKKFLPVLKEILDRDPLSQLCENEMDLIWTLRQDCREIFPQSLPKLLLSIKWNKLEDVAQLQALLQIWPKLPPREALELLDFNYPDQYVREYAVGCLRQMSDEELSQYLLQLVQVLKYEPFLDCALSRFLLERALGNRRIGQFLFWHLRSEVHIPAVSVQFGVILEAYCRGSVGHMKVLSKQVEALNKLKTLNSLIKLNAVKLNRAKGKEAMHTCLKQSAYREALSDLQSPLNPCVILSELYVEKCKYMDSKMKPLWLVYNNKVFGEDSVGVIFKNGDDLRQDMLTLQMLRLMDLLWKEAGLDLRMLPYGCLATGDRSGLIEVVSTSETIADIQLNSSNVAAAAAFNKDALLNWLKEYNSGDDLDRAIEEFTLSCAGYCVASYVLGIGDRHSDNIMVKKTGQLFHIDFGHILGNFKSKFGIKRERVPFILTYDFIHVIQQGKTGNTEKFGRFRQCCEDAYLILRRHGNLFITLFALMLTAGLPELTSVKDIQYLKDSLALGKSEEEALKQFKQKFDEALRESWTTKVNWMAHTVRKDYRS
Sequence of PI3K (p110β/p85α) (h) (P27986 whole entry partner): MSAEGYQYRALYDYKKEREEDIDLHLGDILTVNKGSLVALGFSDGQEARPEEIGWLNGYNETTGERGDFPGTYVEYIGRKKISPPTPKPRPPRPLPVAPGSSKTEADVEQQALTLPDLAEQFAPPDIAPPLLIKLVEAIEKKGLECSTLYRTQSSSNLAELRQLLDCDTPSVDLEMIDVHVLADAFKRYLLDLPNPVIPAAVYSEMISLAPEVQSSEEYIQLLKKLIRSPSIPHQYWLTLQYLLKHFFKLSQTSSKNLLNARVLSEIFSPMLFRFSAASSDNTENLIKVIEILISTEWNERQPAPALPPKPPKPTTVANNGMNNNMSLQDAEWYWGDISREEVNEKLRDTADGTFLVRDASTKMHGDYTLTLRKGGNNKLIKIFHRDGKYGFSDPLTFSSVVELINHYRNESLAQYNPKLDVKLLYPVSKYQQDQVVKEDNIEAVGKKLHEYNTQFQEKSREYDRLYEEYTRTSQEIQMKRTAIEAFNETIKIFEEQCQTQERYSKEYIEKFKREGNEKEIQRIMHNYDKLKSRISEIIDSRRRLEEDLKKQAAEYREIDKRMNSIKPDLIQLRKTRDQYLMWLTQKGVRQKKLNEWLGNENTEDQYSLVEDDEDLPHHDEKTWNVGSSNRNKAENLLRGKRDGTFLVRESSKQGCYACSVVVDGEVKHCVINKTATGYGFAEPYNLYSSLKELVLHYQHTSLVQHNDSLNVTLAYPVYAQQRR

[6] = target: PI3K (p120γ) (h) (Homo sapiens (Human), UniProt P48736); assay: PI3K (p120γ) (h) non-radioactive HTRF kinase assay; assay type: biochemical
Sequence of PI3K (p120γ) (h) (P48736 whole entry): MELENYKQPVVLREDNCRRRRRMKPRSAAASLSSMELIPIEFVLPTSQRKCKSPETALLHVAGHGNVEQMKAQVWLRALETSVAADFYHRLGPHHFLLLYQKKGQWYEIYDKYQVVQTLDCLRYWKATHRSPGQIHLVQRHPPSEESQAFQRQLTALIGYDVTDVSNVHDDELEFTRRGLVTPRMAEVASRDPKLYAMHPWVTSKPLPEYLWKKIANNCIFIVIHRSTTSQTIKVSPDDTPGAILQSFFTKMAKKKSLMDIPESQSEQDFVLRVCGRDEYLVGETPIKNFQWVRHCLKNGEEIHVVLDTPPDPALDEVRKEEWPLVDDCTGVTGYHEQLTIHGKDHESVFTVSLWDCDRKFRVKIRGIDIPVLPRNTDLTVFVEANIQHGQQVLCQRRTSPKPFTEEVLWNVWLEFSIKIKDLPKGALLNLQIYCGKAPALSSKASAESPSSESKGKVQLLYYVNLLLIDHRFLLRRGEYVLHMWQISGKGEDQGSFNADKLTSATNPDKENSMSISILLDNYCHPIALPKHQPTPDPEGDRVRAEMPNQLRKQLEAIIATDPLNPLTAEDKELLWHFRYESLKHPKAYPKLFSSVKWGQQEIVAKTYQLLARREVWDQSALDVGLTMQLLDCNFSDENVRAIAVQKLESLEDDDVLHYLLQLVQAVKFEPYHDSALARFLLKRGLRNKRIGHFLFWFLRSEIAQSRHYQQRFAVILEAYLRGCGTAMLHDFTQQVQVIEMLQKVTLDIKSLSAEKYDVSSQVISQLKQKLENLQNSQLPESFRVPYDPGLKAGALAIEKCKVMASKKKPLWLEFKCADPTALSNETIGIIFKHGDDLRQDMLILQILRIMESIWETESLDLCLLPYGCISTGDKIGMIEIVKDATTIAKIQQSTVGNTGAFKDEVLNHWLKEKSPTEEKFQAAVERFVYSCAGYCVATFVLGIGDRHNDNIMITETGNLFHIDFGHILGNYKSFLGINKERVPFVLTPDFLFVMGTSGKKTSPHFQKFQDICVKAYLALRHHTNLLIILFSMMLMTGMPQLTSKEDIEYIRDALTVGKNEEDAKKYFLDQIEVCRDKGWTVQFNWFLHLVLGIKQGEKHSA

[7] = Compound stability in rat liver microsomes; assay type: in vitro ADME; details: pH 7.4; for half-life at 5 μM: rat liver microsomes 0.5 mg protein/mL, compound 5 μM, NADPH 1.0 mM, 37° C.; for CLint scaled at 5 μM: rat liver microsomes, in vivo CLint extrapolated
[8] = target: PI3K (p110α/p85α) (h) (Homo sapiens (Human), UniProt P42336); assay: PI3K (p110α/p85α) (h) non-radioactive HTRF kinase assay; assay type: biochemical
Sequence of PI3K (p110α/p85α) (h) (P42336 whole entry): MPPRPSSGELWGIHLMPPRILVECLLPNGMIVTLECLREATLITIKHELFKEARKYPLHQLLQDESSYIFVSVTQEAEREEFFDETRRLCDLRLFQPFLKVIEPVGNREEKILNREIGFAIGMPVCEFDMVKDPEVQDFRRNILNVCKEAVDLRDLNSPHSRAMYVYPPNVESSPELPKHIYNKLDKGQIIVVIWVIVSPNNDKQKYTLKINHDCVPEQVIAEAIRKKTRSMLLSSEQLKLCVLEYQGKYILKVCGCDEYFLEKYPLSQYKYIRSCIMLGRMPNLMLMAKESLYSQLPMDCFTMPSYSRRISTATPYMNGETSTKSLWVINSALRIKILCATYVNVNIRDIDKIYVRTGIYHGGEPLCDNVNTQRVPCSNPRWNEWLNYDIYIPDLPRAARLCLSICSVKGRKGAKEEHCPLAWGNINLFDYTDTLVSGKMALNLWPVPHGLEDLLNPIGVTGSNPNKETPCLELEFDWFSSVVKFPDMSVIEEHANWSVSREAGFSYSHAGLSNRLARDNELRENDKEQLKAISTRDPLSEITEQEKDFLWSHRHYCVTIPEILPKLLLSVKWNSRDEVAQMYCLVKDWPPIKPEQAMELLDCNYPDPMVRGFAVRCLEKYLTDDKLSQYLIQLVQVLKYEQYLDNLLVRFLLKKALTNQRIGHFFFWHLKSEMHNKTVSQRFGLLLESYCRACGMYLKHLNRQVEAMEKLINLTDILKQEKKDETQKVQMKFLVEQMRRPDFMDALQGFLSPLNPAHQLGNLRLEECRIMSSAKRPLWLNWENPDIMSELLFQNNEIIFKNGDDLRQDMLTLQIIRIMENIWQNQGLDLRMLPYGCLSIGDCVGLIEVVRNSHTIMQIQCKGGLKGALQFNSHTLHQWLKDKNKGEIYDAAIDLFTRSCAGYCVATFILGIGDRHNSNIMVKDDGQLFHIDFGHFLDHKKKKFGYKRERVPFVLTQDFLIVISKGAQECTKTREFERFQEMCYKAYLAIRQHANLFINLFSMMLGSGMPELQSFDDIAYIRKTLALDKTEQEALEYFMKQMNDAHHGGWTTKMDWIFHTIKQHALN
Sequence of PI3K (p110α/p85α) (h) (P27986 whole entry partner): as the sequence (P27986 whole entry partner) above

[9] = Compound stability in human liver microsomes; assay type: in vitro ADME; details: for half-life at 5 μM: human liver microsomes 0.5 mg protein/mL, compound 5 μM, NADPH 1.0 mM, 37° C.; for CLint scaled at 5 μM: human liver microsomes, in vivo CLint extrapolated
[10] = Pharmacokinetics after intravenous and oral administration in mice; assay type: in vivo; details: Mouse; for CL/F / AUC(0-t) / half-life / Vd: iv dosing, dose 1 mg/kg; for bioavailability / AUC(0-t) / half-life / Vd: plasma; for bioavailability: iv dose 1 mg/kg, oral dose generally 5 or 10 mg/kg; for Vd: read-out: Vss
[11] = target: PI3K (p110δ/p85α) (h) (Homo sapiens (Human), UniProt O00329); assay: PI3K (p110δ/p85α) (h) non-radioactive HTRF kinase assay; assay type: biochemical
Sequence of PI3K (p110δ/p85α) (h) (O00329 whole entry): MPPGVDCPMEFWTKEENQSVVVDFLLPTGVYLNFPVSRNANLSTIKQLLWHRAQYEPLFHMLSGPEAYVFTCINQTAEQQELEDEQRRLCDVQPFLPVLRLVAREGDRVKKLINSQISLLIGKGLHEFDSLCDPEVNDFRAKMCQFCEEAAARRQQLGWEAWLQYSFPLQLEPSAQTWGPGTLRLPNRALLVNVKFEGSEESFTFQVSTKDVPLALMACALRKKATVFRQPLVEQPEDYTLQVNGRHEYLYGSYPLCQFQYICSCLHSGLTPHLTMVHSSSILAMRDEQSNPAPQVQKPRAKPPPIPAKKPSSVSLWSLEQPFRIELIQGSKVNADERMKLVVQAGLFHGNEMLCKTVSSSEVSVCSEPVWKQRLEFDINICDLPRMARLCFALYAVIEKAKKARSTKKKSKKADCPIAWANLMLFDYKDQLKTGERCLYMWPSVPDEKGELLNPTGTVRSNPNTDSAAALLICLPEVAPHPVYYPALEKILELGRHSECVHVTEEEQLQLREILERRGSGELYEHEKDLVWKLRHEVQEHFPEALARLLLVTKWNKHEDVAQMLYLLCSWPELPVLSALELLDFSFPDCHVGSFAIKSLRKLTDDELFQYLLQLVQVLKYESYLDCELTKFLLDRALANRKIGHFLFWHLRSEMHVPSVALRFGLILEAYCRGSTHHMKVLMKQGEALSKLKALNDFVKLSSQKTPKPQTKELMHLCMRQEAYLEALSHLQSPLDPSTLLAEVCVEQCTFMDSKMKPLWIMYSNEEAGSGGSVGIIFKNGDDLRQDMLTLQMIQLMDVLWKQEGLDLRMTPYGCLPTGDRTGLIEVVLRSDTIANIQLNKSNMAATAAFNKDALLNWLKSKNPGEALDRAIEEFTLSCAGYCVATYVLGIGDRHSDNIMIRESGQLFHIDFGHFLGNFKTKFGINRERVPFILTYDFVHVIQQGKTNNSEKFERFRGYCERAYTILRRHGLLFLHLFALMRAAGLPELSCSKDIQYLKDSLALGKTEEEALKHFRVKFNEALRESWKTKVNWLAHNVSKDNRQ
Sequence of PI3K (p110δ/p85α) (h) (P27986 whole entry partner): as the sequence (P27986 whole entry partner) above

[12] = Pharmacokinetics after intravenous and oral administration in rats; assay type: in vivo, rat; details: for clearance (CL) / AUC(0-t) / half-life / Vd: iv dosing, dose 1 mg/kg; for bioavailability / AUC(0-t) / half-life / Vd: rat, plasma; for bioavailability: iv dose 1 mg/kg, oral dose generally 5 or 10 mg/kg; for Vd: read-out: Vss
[13] = system: murine model of asthma; details: ovalbumin-induced airway inflammation; FASEB, 2006, 20: 455-465; cited from earlier work
[14] = target: PI3Kδ (Homo sapiens, UniProt O00329); details: Cell, 2006, 125, 733-747; cited from earlier work

Compound: O=C1NC(=O)/C(=C\c2ccc3nccnc3c2)S1 [AS 605240]
- onset of disease in a model of systemic lupus erythematosis [1]: delay onset of disease
- efficacy in a mouse model of rheumatoid arthritis [2]: efficacious

Compound: CC[C@H](Nc1ncnc(N)c1-c1nc(C)no1)c1nc2cccc(Cl)c2c(=O)n1C1CC1 [Ex. 4, (S)-2-(1-((6-amino-5-(3-methyl-1,2,4-oxadiazol-5-yl)pyrimidin-4-yl)amino)-propyl)-5-chloro-3-cyclopropylquinazolin-4(3H)-one]
- CL/F [3]: 0.58 L/h/kg
- bioavailability [3]: 34.1%
- AUC(0-t) [3]: 1580 ng·h/mL
- half-life [3]: 684 min
- Vd [3]: 6.01 L/kg
- CL/F [4]: 0.696 L/h/kg
- bioavailability [4]: 55.4%
- AUC(0-t) [4]: 1520 ng·h/mL
- half-life [4]: 185 min
- Vd [4]: 1.92 L/kg
- IC50 [5]: 113 nM
- IC50 [6]: 258 nM
- half-life at 5 μM [7]: 81.1 min
- CLint scaled at 5 μM [7]: 30.6 mL/min/kg
- IC50 [8]: 1480 nM
- half-life at 5 μM [9]: 45.5 min
- CLint scaled at 5 μM [9]: 38.2 mL/min/kg
- CL/F [10]: 15.3 L/h/kg
- bioavailability [10]: 11%
- AUC(0-t) [10]: 651 ng·h/mL
- half-life [10]: 88.8 min
- Vd [10]: 3.8 L/kg
- IC50 [11]: 8 nM
- clearance (CL) [12]: 1.29 L/h/kg
- bioavailability [12]: 76.1%
- AUC(0-t) [12]: 726 ng·h/mL
- half-life [12]: 359 min
- Vd [12]: 10.7 L/kg

Compound: Cc1nnc(-c2c(N)ncnc2N[C@@H](C)c2nc3cccc(Cl)c3c(=O)n2-c2ccccc2)o1 [Ex. 64, (S)-2-(1-((6-amino-5-(5-methyl-1,3,4-oxadiazol-2-yl)pyrimidin-4-yl)amino)ethyl)-5-chloro-3-phenylquinazolin-4(3H)-one]
- CL/F [3]: 0.11 L/h/kg
- bioavailability [3]: 76.3%
- AUC(0-t) [3]: 10000 ng·h/mL
- half-life [3]: 218 min
- Vd [3]: 0.48 L/kg
- CL/F [4]: 0.43 L/h/kg
- bioavailability [4]: 134%
- AUC(0-t) [4]: 2340 ng·h/mL
- half-life [4]: 209 min
- Vd [4]: 1.4 L/kg
- IC50 [5]: 674 nM
- IC50 [6]: 112 nM
- half-life at 5 μM [7]: 49.6 min
- CLint scaled at 5 μM [7]: 50.1 mL/min/kg
- IC50 [8]: > 3000 nM
- half-life at 5 μM [9]: 55.8 min
- CLint scaled at 5 μM [9]: 31.1 mL/min/kg
- CL/F [10]: 1.13 L/h/kg
- bioavailability [10]: 78.7%
- AUC(0-t) [10]: 883 ng·h/mL
- half-life [10]: 33.6 min
- Vd [10]: 0.41 L/kg
- IC50 [11]: 8 nM
- clearance (CL) [12]: 1.70 L/h/kg
- bioavailability [12]: 111%
- AUC(0-t) [12]: 596 ng·h/mL
- half-life [12]: 46.6 min
- Vd [12]: 1.69 L/kg

Compound: Cc1noc(-c2c(N)ncnc2N[C@@H](C)c2nc3cccc(Cl)c3c(=O)n2-c2ccccc2)n1 [Ex. 65, (S)-2-(1-((6-amino-5-(3-methyl-1,2,4-oxadiazol-5-yl)pyrimidin-4-yl)amino)ethyl)-5-chloro-3-phenylquinazolin-4(3H)-one]
- CL/F [3]: 0.37 L/h/kg
- bioavailability [3]: 24.8%
- AUC(0-t) [3]: 2690 ng·h/mL
- half-life [3]: 636 min
- Vd [3]: 4.25 L/kg
- CL/F [4]: 0.92 L/h/kg
- bioavailability [4]: 10%
- AUC(0-t) [4]: 1060 ng·h/mL
- half-life [4]: 403 min
- Vd [4]: 4.2 L/kg
- IC50 [5]: 154 nM
- IC50 [6]: 37 nM
- half-life at 5 μM [7]: 32.6 min
- CLint scaled at 5 μM [7]: 76.1 mL/min/kg
- IC50 [8]: 1010 nM
- half-life at 5 μM [9]: 33.1 min
- CLint scaled at 5 μM [9]: 52.5 mL/min/kg
- CL/F [10]: 1.90 L/h/kg
- bioavailability [10]: 33.3%
- AUC(0-t) [10]: 527 ng·h/mL
- half-life [10]: 47.4 min
- Vd [10]: 0.84 L/kg
- IC50 [11]: 2 nM
- clearance (CL) [12]: 7.74 L/h/kg
- bioavailability [12]: 88.7%
- AUC(0-t) [12]: 260 ng·h/mL
- half-life [12]: 54.2 min
- Vd [12]: 9.09 L/kg

Compound: Cc1ccccc1-n1c(Cn2cnc3c(N)ncnc32)nc2cccc(C)c2c1=O [IC87114]
- inflammation and disease in a murine model of asthma [13]: significantly ameliorate inflammation and disease
- inhibits PI3Kδ [14]: high nanomolar range (triple digit)
